Data reported in BindingDB's records for doi:10.1016/j.bmc.2012.01.011 (Korea Research Institute of Bioscience and Biotechnology, 2012).

Biological target: Neuraminidase (Influenza A virus (strain A/Brevig Mission/1/1918 H1N1), UniProt Q9IGQ6)
Assay: Inhibition of recombinant influenza A virus H1N1 A/Bervig_Mission/1/18 sialidase activity using 4-methylumbelliferyl-alpha-D-N-acetylneuraminic acid sodium salt hydrate as substrate by fluorimetric analysis

Neuraminidase, sequence (Q9IGQ6 whole entry): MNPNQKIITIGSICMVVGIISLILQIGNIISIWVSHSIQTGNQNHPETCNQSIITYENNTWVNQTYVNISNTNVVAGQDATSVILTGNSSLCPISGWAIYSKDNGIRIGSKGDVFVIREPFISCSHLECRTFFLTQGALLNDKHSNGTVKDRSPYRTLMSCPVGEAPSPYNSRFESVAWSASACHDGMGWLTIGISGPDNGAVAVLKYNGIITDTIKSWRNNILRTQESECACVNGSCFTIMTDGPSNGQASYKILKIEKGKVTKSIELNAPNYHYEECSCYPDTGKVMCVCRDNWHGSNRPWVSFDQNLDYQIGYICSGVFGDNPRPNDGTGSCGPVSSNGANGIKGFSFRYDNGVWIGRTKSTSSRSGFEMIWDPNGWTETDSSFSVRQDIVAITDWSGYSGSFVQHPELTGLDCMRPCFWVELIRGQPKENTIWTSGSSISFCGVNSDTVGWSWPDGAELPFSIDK

Row | Compound | IC50 [µM]
1 | CC(C)=CC=C(OC(=O)C(C)C)c1cc(O)c2c(O)ccc(O)c2c1O | 40.5
2 | CC(C)=CC=C(OC(=O)CC(C)(C)O)c1cc(O)c2c(O)ccc(O)c2c1O [(R)-1-(5,8-dihydroxy-1,4-dioxo-1,4-dihydronaphthalen-2-yl)-4-methylpent-3-enyl 3-hydroxy-3-methylbutanoate] | 40.5
